Experimental data from ChEMBL document CHEMBL4414672, “Synthesis of certain benzothieno[3,2-d]pyrimidine derivatives as a selective SIRT2 inhibitors” (Eur J Med Chem, 2020).

Tests used:
Assay type in all cases: functional
HCT-15 = test: Growth inhibition of human HCT15 cells at 10^-5 M incubated for 48 hrs by sulforhodamine B assay; conditions: HCT-15, 48 h, read-out: GI
DU-145 = test: Growth inhibition of human DU145 cells at 10^-5 M incubated for 48 hrs by sulforhodamine B assay; conditions: DU-145, 48 h, read-out: GI
T47D = test: Growth inhibition of human T47D cells at 10^-5 M incubated for 48 hrs by sulforhodamine B assay; conditions: read-out: GI
SW-620 = test: Growth inhibition of human SW620 cells at 10^-5 M incubated for 48 hrs by sulforhodamine B assay; conditions: SW-620, 48 h, read-out: GI
SR = test: Growth inhibition of human SR cells at 10^-5 M incubated for 48 hrs by sulforhodamine B assay; conditions: read-out: GI
MOLT-4 = test: Growth inhibition of human MOLT4 cells at 10^-5 M incubated for 48 hrs by sulforhodamine B assay; conditions: MOLT-4, 48 h, read-out: GI
NCI-H226 = test: Growth inhibition of human NCI-H226 cells at 10^-5 M incubated for 48 hrs by sulforhodamine B assay; conditions: NCI-H226, 48 h, read-out: GI
UACC-62 = test: Growth inhibition of human UACC62 cells at 10^-5 M incubated for 48 hrs by sulforhodamine B assay; conditions: UACC-62, 48 h, read-out: GI
SNB-19 = test: Growth inhibition of human SNB19 cells at 10^-5 M incubated for 48 hrs by sulforhodamine B assay; conditions: SNB-19, 48 h, read-out: GI
Hs-578T = test: Growth inhibition of human Hs 578T cells at 10^-5 M incubated for 48 hrs by sulforhodamine B assay; conditions: read-out: GI
Malme-3M = test: Growth inhibition of human MALME-3M cells at 10^-5 M incubated for 48 hrs by sulforhodamine B assay; conditions: read-out: GI
UACC-257 = test: Growth inhibition of human UACC257 cells at 10^-5 M incubated for 48 hrs by sulforhodamine B assay; conditions: UACC-257, 48 h, read-out: GI
SF-539 = test: Growth inhibition of human SF539 cells at 10^-5 M incubated for 48 hrs by sulforhodamine B assay; conditions: SF-539, 48 h, read-out: GI
COLO 205 = test: Growth inhibition of human COLO205 cells at 10^-5 M incubated for 48 hrs by sulforhodamine B assay; conditions: COLO 205, 48 h, read-out: GI
EKVX = test: Growth inhibition of human EKVX cells at 10^-5 M incubated for 48 hrs by sulforhodamine B assay; conditions: read-out: GI
IGROV-1 = test: Growth inhibition of human IGROV1 cells at 10^-5 M incubated for 48 hrs by sulforhodamine B assay; conditions: IGROV-1, 48 h, read-out: GI
HT-29 = test: Growth inhibition of human HT-29 cells at 10^-5 M incubated for 48 hrs by sulforhodamine B assay; conditions: HT-29, 48 h, read-out: GI
NCI-H322M = test: Growth inhibition of human NCI-H322M cells at 10^-5 M incubated for 48 hrs by sulforhodamine B assay; conditions: read-out: GI
BT-549 = test: Growth inhibition of human BT549 cells at 10^-5 M incubated for 48 hrs by sulforhodamine B assay; conditions: BT-549, 48 h, read-out: GI
LOX IMVI = test: Growth inhibition of human LOXIMVI cells at 10^-5 M incubated for 48 hrs by sulforhodamine B assay; conditions: read-out: GI
CCRF-CEM = test: Growth inhibition of human CCRF-CEM cells at 10^-5 M incubated for 48 hrs by sulforhodamine B assay; conditions: read-out: GI
A498 = test: Growth inhibition of human A498 cells at 10^-5 M incubated for 48 hrs by sulforhodamine B assay; conditions: A498, 48 h, read-out: GI
MDA-MB-435 = test: Growth inhibition of human MDA-MB-435 cells at 10^-5 M incubated for 48 hrs by sulforhodamine B assay; conditions: MDA-MB-435, 48 h, read-out: GI
OVCAR-5 = test: Growth inhibition of human OVCAR5 cells at 10^-5 M incubated for 48 hrs by sulforhodamine B assay; conditions: OVCAR-5, 48 h, read-out: GI
OVCAR-3 = test: Growth inhibition of human OVCAR3 cells at 10^-5 M incubated for 48 hrs by sulforhodamine B assay; conditions: OVCAR-3, 48 h, read-out: GI
OVCAR-4 = test: Growth inhibition of human OVCAR4 cells at 10^-5 M incubated for 48 hrs by sulforhodamine B assay; conditions: OVCAR-4, 48 h, read-out: GI
CAKI-1 = test: Growth inhibition of human Caki1 cells at 10^-5 M incubated for 48 hrs by sulforhodamine B assay; conditions: CAKI-1, 48 h, read-out: GI
SN12C = test: Growth inhibition of human SN12C cells at 10^-5 M incubated for 48 hrs by sulforhodamine B assay; conditions: read-out: GI
SNB-75 = test: Growth inhibition of human SNB75 cells at 10^-5 M incubated for 48 hrs by sulforhodamine B assay; conditions: SNB-75, 48 h, read-out: GI
ACHN = test: Growth inhibition of human ACHN cells at 10^-5 M incubated for 48 hrs by sulforhodamine B assay; conditions: read-out: GI
PC-3 = test: Growth inhibition of human PC3 cells at 10^-5 M incubated for 48 hrs by sulforhodamine B assay; conditions: PC-3, 48 h, read-out: GI
TK-10 = test: Growth inhibition of human TK10 cells at 10^-5 M incubated for 48 hrs by sulforhodamine B assay; conditions: TK-10, 48 h, read-out: GI
NCI-H522 = test: Growth inhibition of human NCI-H522 cells at 10^-5 M incubated for 48 hrs by sulforhodamine B assay; conditions: NCI-H522, 48 h, read-out: GI
A549 = test: Growth inhibition of human A549/ATCC cells at 10^-5 M incubated for 48 hrs by sulforhodamine B assay; conditions: A549, 48 h, read-out: GI
SK-MEL-28 = test: Growth inhibition of human SK-MEL-28 cells at 10^-5 M incubated for 48 hrs by sulforhodamine B assay; conditions: SK-MEL-28, 48 h, read-out: GI
MDA-MB-468 = test: Growth inhibition of human MDA-MB-468 cells at 10^-5 M incubated for 48 hrs by sulforhodamine B assay; conditions: MDA-MB-468, 48 h, read-out: GI
MCF7 = test: Growth inhibition of human MCF7 cells at 10^-5 M incubated for 48 hrs by sulforhodamine B assay; conditions: MCF7, 48 h, read-out: GI
SF-295 = test: Growth inhibition of human SF295 cells at 10^-5 M incubated for 48 hrs by sulforhodamine B assay; conditions: SF-295, 48 h, read-out: GI
HCC 2998 = test: Growth inhibition of human HCC2998 cells at 10^-5 M incubated for 48 hrs by sulforhodamine B assay; conditions: HCC 2998, 48 h, read-out: GI

O=C1/C(=C\c2ccc3ccccc3c2)Sc2ccc(Cl)cc21
inhibition of growth at 10 µM (HCT-15): -4.32%
inhibition of growth at 10 µM (DU-145): -10.2%
inhibition of growth at 10 µM (T47D): 29.5%
inhibition of growth at 10 µM (SW-620): 3.24%
inhibition of growth at 10 µM (SR): 18.6%
inhibition of growth at 10 µM (MOLT-4): 1.25%
inhibition of growth at 10 µM (NCI-H226): 17.9%
inhibition of growth at 10 µM (UACC-62): 21.7%
inhibition of growth at 10 µM (SNB-19): -8.84%
inhibition of growth at 10 µM (Hs-578T): -2.83%
inhibition of growth at 10 µM (Malme-3M): 8.78%
inhibition of growth at 10 µM (UACC-257): -3.36%
inhibition of growth at 10 µM (SF-539): -8.09%
inhibition of growth at 10 µM (COLO 205): -10.7%
inhibition of growth at 10 µM (EKVX): 12.7%
inhibition of growth at 10 µM (IGROV-1): 15.7%
inhibition of growth at 10 µM (HT-29): -1.78%
inhibition of growth at 10 µM (NCI-H322M): 10.3%
inhibition of growth at 10 µM (BT-549): -9.47%
inhibition of growth at 10 µM (LOX IMVI): 1.77%
inhibition of growth at 10 µM (CCRF-CEM): -2.13%
inhibition of growth at 10 µM (A498): 0.99%
inhibition of growth at 10 µM (MDA-MB-435): -2.15%
inhibition of growth at 10 µM (OVCAR-5): -2.92%
inhibition of growth at 10 µM (OVCAR-3): -1.8%
inhibition of growth at 10 µM (OVCAR-4): 12.3%
inhibition of growth at 10 µM (CAKI-1): 27.9%
inhibition of growth at 10 µM (SN12C): 6.38%
inhibition of growth at 10 µM (SNB-75): -0.33%
inhibition of growth at 10 µM (ACHN): 8.79%
inhibition of growth at 10 µM (PC-3): 11.6%
inhibition of growth at 10 µM (TK-10): -5.61%
inhibition of growth at 10 µM (NCI-H522): 11.7%
inhibition of growth at 10 µM (A549): -7.74%
inhibition of growth at 10 µM (SK-MEL-28): -17.4%
inhibition of growth at 10 µM (MDA-MB-468): -6.42%
inhibition of growth at 10 µM (MCF7): -10.2%
inhibition of growth at 10 µM (SF-295): -8.09%
inhibition of growth at 10 µM (HCC 2998): -27.2%

O=C1/C(=C\c2cccc(Br)c2)Sc2ccc(Cl)cc21
inhibition of growth at 10 µM (HCT-15): -10.9%
inhibition of growth at 10 µM (DU-145): -12.3%
inhibition of growth at 10 µM (T47D): 1.47%
inhibition of growth at 10 µM (SW-620): -1.25%
inhibition of growth at 10 µM (SR): -4.42%
inhibition of growth at 10 µM (MOLT-4): -5.33%
inhibition of growth at 10 µM (NCI-H226): 10.4%
inhibition of growth at 10 µM (UACC-62): 2.69%
inhibition of growth at 10 µM (SNB-19): -6.33%
inhibition of growth at 10 µM (Hs-578T): -8.14%
inhibition of growth at 10 µM (Malme-3M): -1.08%
inhibition of growth at 10 µM (UACC-257): -6.58%
inhibition of growth at 10 µM (SF-539): -3.89%
inhibition of growth at 10 µM (COLO 205): -6.12%
inhibition of growth at 10 µM (EKVX): -0.43%
inhibition of growth at 10 µM (IGROV-1): -2.64%
inhibition of growth at 10 µM (HT-29): -10.6%
inhibition of growth at 10 µM (NCI-H322M): 9.44%
inhibition of growth at 10 µM (BT-549): -26.2%
inhibition of growth at 10 µM (LOX IMVI): 2.63%
inhibition of growth at 10 µM (CCRF-CEM): -14.5%
inhibition of growth at 10 µM (A498): 13.5%
inhibition of growth at 10 µM (MDA-MB-435): -14%
inhibition of growth at 10 µM (OVCAR-5): -9.67%
inhibition of growth at 10 µM (OVCAR-3): -12.1%
inhibition of growth at 10 µM (OVCAR-4): -9.77%
inhibition of growth at 10 µM (CAKI-1): 10.1%
inhibition of growth at 10 µM (SN12C): -0.02%
inhibition of growth at 10 µM (SNB-75): 2.14%
inhibition of growth at 10 µM (ACHN): 3.66%
inhibition of growth at 10 µM (PC-3): -1.54%
inhibition of growth at 10 µM (TK-10): -29.1%
inhibition of growth at 10 µM (NCI-H522): 5.63%
inhibition of growth at 10 µM (A549): 2.51%
inhibition of growth at 10 µM (SK-MEL-28): -20.5%
inhibition of growth at 10 µM (MDA-MB-468): -18.6%
inhibition of growth at 10 µM (MCF7): -12.3%
inhibition of growth at 10 µM (SF-295): -0.53%
inhibition of growth at 10 µM (HCC 2998): -3.41%
